# Laboratory results published in patent publication US12600731B2, “Isoxazolo[5,4-H]quinazoline compounds as protein kinase inhibitors” (CHENGDU CYNOGEN BIO-PHARMACEUTICAL TECHNOLOGY CO., LTD., priority 2019, dated 2026).
# Legend:
# Type in all cases: biochemical
# CDK4/cyclin D3 = CDK4/cyclin D3 (Homo sapiens, UniProt P11802); test: Kinase activity assay, Caliper Mobility Shift Assay, CDK4/cyclin D3; conditions: 10 nM kinase, ATP 250 μM, 150 minutes at room temperature
# Procedure: (§1) The inhibitory effect of compounds against the kinase CDK4/cyclin D3 was detected by Caliper Mobility Shift Assay method. The final concentration of the compounds to be tested was set at 10 concentrations starting from 1 μM by 3-fold serial dilution. 5 μL of compounds at 5-fold final concentration and 10 μL of CDK4/cyclin D3 kinase solution at a final concentration of 10 nM was added to a 384-well reaction plate, respectively. The plate was pre-incubated for 10 min at room temperature (with negative control wells containing 10 μL of kinase buffer and 5 μL of 5% DMSO; positive control wells containing 10 μL of kinase solution and 5 μL of 5% DMSO). The reaction was initiated by adding 10 μL of ATP at a final concentration of 250 μM and the corresponding substrate peptide mixture at room temperature for 150 minutes. 30 μL of stop detection solution containing EDTA was added to stop the kinase reaction. Caliper EZ Reader was used to read the conversion rate. Inhibition rate %=(average conversion rate of positive control %−conversion rate of sample %)/(average conversion rate of positive control %−average conversion rate of negative control %). wherein: negative control wells represent the conversion rate readings of wells without enzymatic activity; positive control wells represent conversion readings for wells with no compound inhibition. The log(inhibitor) vs. response—Variable slope of the analysis software GraphPad Prism 5 was used with log concentration value as the X-axis and the percent inhibition rate as the Y-axis to fit the dose-response curve, the IC50 value of each compound on the enzyme activity was thus obtained. Calculation formula: Y=Bottom+(Top−Bottom)/(1+10^((Log IC50−X)*HillSlope)).
# CDK6/Cyclin D3 = CDK6/Cyclin D3 (Homo sapiens, UniProt Q00534); test: Kinase activity assay, CDK6/Cyclin D3 (tested in a similar manner); conditions: tested in a similar manner to CDK4/cyclin D3
# Procedure: as §1
# (§2) The IC50 values for CDK6/Cyclin D3 and CDK2/Cyclin A2 of compounds of the present disclosure were tested in a similar manner.
# CDK2/Cyclin A2 = CDK2/Cyclin A2 (Homo sapiens, UniProt P24941); test: Kinase activity assay, CDK2/Cyclin A2 (tested in a similar manner); conditions: tested in a similar manner to CDK4/cyclin D3
# Procedure: as §1, §2
# Chain of CDK6/Cyclin D3 (Q00534 whole entry, species assumed): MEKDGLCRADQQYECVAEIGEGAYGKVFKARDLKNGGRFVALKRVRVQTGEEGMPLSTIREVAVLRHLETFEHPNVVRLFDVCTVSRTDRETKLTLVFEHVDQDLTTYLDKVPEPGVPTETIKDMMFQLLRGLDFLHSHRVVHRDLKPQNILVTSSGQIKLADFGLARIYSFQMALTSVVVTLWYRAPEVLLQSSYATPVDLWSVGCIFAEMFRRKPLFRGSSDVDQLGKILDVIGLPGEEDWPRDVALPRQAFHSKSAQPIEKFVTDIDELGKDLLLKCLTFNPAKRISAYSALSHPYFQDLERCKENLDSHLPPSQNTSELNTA
# Chain of CDK6/Cyclin D3 (P30281 whole entry partner, species assumed): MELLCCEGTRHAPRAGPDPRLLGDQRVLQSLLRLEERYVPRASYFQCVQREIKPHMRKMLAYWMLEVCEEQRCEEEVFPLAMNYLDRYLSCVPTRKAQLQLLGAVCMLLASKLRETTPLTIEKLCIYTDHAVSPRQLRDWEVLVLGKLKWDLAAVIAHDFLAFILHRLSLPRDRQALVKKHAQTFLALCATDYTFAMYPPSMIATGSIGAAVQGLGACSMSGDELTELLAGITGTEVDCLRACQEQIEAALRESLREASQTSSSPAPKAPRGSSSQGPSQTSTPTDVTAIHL
# Chain of CDK4/cyclin D3 (P11802 whole entry, species assumed): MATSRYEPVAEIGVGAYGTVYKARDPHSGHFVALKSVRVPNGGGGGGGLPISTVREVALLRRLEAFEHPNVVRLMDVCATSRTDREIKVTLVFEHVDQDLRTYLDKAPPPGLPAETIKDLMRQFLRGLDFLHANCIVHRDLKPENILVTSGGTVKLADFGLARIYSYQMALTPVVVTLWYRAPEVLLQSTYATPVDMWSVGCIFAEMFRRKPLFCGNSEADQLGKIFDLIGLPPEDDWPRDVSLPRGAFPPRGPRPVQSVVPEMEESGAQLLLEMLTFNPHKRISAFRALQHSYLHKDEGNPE
# Chain of CDK4/cyclin D3 (P30281 whole entry partner, species assumed): as the sequence (P30281 whole entry partner, species assumed) above
IC50 (CDK4/cyclin D3),IC50 (CDK6/Cyclin D3),IC50 (CDK2/Cyclin A2),SMILES
2 nM,4 nM,10 nM,"CC(C)c1noc2ccc3cnc(Nc4ccc(OCCN(C)C)cc4)nc3c12 [Compound I-44, N-(4-(2-(dimethylamino)ethoxy)phenyl)-9-isopropylisoxazolo[5,4-h]quinazolin-2-amine]"
7 nM,21 nM,10 nM,"CC(C)c1noc2c1-c1nc(Nc3ccc(N4CCNCC4)c(F)c3)ncc1CC2 [Compound I-38, N-(3-fluoro-4-(piperazin-1-yl)phenyl)-9-isopropyl-5,6-dihydroisoxazolo[5,4-H] quinazolin-2-amine]"
2 nM,6 nM,10 nM,"CC(C)c1noc2ccc3cnc(Nc4cccc(S(N)(=O)=O)c4)nc3c12 [Compound I-40, 3-((9-isopropylisoxazolo[5,4-h]quinazolin-2-yl)amino)benzenesulfonamide]"
6 nM,17 nM,11 nM,"CC(C)c1noc2c1-c1nc(Nc3ccc(N4CCN(C)CC4)c(F)c3)ncc1CC2 [Compound I-39, N-(3-fluoro-4-(4-methylpiperazin-1-yl)phenyl)-9-isopropyl-5,6-dihydroisoxazolo[5,4-H]quinazolin-2-amine]"
1 nM,5 nM,4 nM,"CC(C)c1noc2ccc3cnc(Nc4ccc(C(=O)N5CCN(C)CC5)cc4)nc3c12 [Compound I-43, (4-((9-isopropylisoxazolo[5,4-H]quinazolin-2-yl)amino)phenyl) (4-methylpiperazin-1-yl)methanone]"

# The remaining lines, values behind:
SMILES,IC50 (CDK4/cyclin D3),IC50 (CDK6/Cyclin D3),IC50 (CDK2/Cyclin A2)
"CC(C)c1noc2ccc3cnc(Nc4ccc(N5CCOCC5)cc4F)nc3c12 [Compound I-32, N-(2-fluoro-4-morpholinophenyl)-9-isopropylisoxazolo[5,4-h] quinazolin-2-amine]",150 nM,359 nM,294 nM
"CC(C)c1noc2ccc3cnc(Nc4ccc(N5CCNCC5)c(F)c4)nc3c12 [Compound I-33, N-(3-fluoro-4-(piperazin-1-yl)phenyl)-9-isopropylisoxazolo[5,4-H] quinazolin-2-amine]",3 nM,7 nM,10 nM
"COc1ccc2cc(Nc3ncc4ccc5onc(C(C)C)c5c4n3)ccc2n1 [Compound I-37, 9-isopropyl-N-(2-methoxyquinolin-6-yl)isoxazolo[5,4-H]quinazolin-2-amine]",34 nM,68 nM,82 nM
CC(C)c1noc2ccc3cnc(Nc4ccc(N5CCN(C)CC5)c(F)c4)nc3c12 [Compound I-34],3 nM,9 nM,12 nM
"CCN1CCN(c2ccc(Nc3ncc4ccc5onc(C(C)C)c5c4n3)cc2F)CC1 [Compound I-35, N-(4-(4-ethylpiperazin-1-yl)-3-fluorophenyl)-9-isopropylisoxazolo[5,4-H]quinazolin-2-amine]",3 nM,8 nM,10 nM
"COc1cc(N2CCN(C)CC2)ccc1Nc1ncc2ccc3onc(C(C)C)c3c2n1 [Compound I-31, 9-isopropyl-N-(2-methoxy-4-(4-methylpiperazin-l-yl)phenyl)isoxazolo [5,4-H]quinazolin-2-amine]",98 nM,340 nM,244 nM
"CC(C)c1noc2ccc3cnc(Nc4ccc(N5CCC(CCCO)CC5)cc4)nc3c12 [Compound I-30, 3-(1-(4-((9-isopropylisoxazolo[5,4-h]quinazolin-2-yl)amino)phenyl)piperidin-4-yl)propan-1-ol]",100 nM,245 nM,140 nM
"CC(C)c1noc2ccc3cnc(Nc4ccc(N5CCNCC5)cc4)nc3c12 [Compound I-27, 9-isopropyl-N-(4-(piperazin-1-yl)phenyl)isoxazolo[5,4-H]quinazolin-2-amine]",3 nM,8 nM,6 nM
